Results taken from US20250340552A1, “COMPOUNDS, COMPOSITIONS AND METHODS OF TREATING DISORDERS” (HOTSPOT THERAPEUTICS, INC., priority 2022, published 2025).
Like-named read-outs stand apart in the source and are kept apart here.

Biological target: T1, Cbl-B (Homo sapiens, UniProt Q13191)
T1 construct: MSD-Based Assay for Degradation of Cbl-B in THP-1 Cells; endogenous in cells; host or cells: THP-1 (title) / Jurkat (protocol text)
Assay: MSD-based assay for degradation of Cbl-B in THP-1 cells
Assay type: cell-based
Experimental: MSD-Based Assay for Degradation of Cbl-B in THP-1 Cells
Assay plates were then shaken at 600 rpm for 5 minutes, followed by incubation for 24 hours in the 37° C. TC incubator. […] Cell debris was then spun down at maximum speed (about 3200 g) for 30 min and lysates frozen in the −80° C. fridge. Meanwhile, MSD plates (L15XA-3) were coated overnight at 4° C. with 1 ug/mL capture antibody (Anti-Cbl-B antibody, 246C5a and Mouse mAB, ab54362). […] Blocking buffer was 3% Blocker A (MSD, R93BA-4) in TBST. Plates were washed 3× with 150 ul/well of 1×TBST and sample lysates (70 ul/well) then added, followed by shaking for 1 hr at RT, 600 rpm. […] Plates were again washed 3× with 150 ul/well of 1×TBST, followed by addition of Secondary Detection antibody, SULFO-TAG anti-species antibody (Anti Rabbit Antibody (R32AB-5) MSD, R32AB-1) at a final concentration of 1 ug/ml and 25 uL/well, followed by shaking for 1 hr at RT, 600 rpm. Plates were again washed 3× with 150 ul/well of 1×TBST, followed by addition of 1×MSD reading buffer (MSD, R92TC-2), 150 ul/well, diluted from 4× with water.
Compound Dmax were binned into A through D as follows: A indicates >70%, B indicates 50-70%, C indicates 30-50%, D indicates <30%.

[1] = Cbl-B degradation, Jurkat cells seeded (heading: THP-1 cells), 24 hours incubation, MSD readout
[2] = Cbl-B degradation, Jurkat cells seeded (heading: THP-1 cells), 24 hours incubation, MSD readout, read-out: Dmax

T1 sequence (Q13191 whole entry): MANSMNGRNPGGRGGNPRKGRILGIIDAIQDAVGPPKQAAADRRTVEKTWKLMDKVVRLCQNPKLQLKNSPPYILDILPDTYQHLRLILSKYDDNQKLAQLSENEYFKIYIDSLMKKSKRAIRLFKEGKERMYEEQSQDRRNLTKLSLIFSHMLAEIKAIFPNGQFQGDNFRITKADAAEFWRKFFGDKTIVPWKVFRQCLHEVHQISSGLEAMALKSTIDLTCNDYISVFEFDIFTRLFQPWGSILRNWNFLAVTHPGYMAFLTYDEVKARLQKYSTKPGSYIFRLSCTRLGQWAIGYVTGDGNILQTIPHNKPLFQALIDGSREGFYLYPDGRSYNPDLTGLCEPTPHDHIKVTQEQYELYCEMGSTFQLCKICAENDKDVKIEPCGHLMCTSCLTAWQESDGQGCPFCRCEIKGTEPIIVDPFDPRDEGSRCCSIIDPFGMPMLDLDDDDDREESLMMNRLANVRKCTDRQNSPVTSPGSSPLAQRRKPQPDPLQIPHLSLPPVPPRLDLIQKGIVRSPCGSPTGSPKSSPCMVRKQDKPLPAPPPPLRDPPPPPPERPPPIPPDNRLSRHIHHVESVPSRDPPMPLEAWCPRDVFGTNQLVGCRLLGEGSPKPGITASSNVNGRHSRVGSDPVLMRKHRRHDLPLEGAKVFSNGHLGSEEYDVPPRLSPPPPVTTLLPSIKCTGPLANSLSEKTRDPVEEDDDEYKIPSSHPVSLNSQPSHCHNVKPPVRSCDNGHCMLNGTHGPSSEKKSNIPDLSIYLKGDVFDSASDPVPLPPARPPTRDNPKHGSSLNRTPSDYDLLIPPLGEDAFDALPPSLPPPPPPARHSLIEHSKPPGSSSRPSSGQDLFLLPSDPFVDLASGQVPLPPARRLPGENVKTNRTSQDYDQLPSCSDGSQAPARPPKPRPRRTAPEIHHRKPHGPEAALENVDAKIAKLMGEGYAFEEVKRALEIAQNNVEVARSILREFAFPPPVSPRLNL

Compound	DC50 [1]	Dmax [2]	Dmax (THP-1)
Cn1cnnc1CC1(c2cccc(-n3cc4c(C(F)(F)F)cc(CN5CCN(C(=O)CN6CCC(CN7CCN(c8ccc9c(c8)CN([C@@H]8CCC(=O)NC8=O)C9=O)CC7)CC6)CC5)cn4c3=O)c2)COC1 (single isomer, unassigned) [Compound 131]	> 10000 nM	30 to 50%	
Cn1cnnc1CC1(c2cccc(-n3cc4c(C(F)(F)F)cc(CN5CCN(C(=O)CN6CCC(CN7CCN(c8ccc9c(c8)CN([C@H]8CCC(=O)NC8=O)C9=O)CC7)CC6)CC5)cn4c3=O)c2)COC1 (single isomer, unassigned) [Compound 132]	< 30 nM	50 to 70%	
Cn1cnnc1CC1(c2cccc(-n3cc4c(C(F)(F)F)cc(CN5CCN(CC(=O)N6CCC(CN7CCN(c8ccc9c(c8)CN([C@@H]8CCC(=O)NC8=O)C9=O)CC7)CC6)CC5)cn4c3=O)c2)COC1 (single isomer, unassigned) [Compound 133]	30 to 300 nM	> 70%	
Cn1cnnc1CC1(c2cccc(-n3cc4c(C(F)(F)F)cc(CN5CCN(CC(=O)N6CCC(CN7CCN(c8ccc9c(c8)CN([C@H]8CCC(=O)NC8=O)C9=O)CC7)CC6)CC5)cn4c3=O)c2)COC1 (single isomer, unassigned) [Compound 134]	< 30 nM	> 70%	
CN(CCN(C)C(=O)c1ccc(N2CCN(c3ccc4c(c3)CN([C@@H]3CCC(=O)NC3=O)C4=O)CC2)cc1)Cc1cc(C(F)(F)F)c2cn(-c3cccc([C@H](c4nncn4C)C4CCC4)c3)c(=O)n2c1 (single isomer, unassigned) [Compound 139]	300 to 1000 nM		
CN(CCN(C)C(=O)c1ccc(N2CCN(c3ccc4c(c3)CN([C@H]3CCC(=O)NC3=O)C4=O)CC2)cc1)Cc1cc(C(F)(F)F)c2cn(-c3cccc([C@H](c4nncn4C)C4CCC4)c3)c(=O)n2c1 (single isomer, unassigned) [Compound 140]	30 to 300 nM		
CN(CCN(C)C(=O)c1cc(C(F)(F)F)c2cn(-c3cccc([C@H](c4nncn4C)C4CCC4)c3)c(=O)n2c1)C(=O)c1ccc(N2CCN(c3ccc4c(c3)CN([C@@H]3CCC(=O)NC3=O)C4=O)CC2)cc1 (single isomer, unassigned) [Compound 141]	> 10000 nM	< 30%	
CN(CCN(C)C(=O)c1cc(C(F)(F)F)c2cn(-c3cccc([C@H](c4nncn4C)C4CCC4)c3)c(=O)n2c1)C(=O)c1ccc(N2CCN(c3ccc4c(c3)CN([C@H]3CCC(=O)NC3=O)C4=O)CC2)cc1 (single isomer, unassigned) [Compound 142]	> 10000 nM	30 to 50%	
Cn1cnnc1[C@@H](c1cccc(-n2cc3c(C(F)(F)F)cc(CN4CCC[C@@H](OCCc5ccc(CN6CCN(c7ccc8c(c7)CN([C@@H]7CCC(=O)NC7=O)C8=O)CC6)cc5)C4)cn3c2=O)c1)C1CCC1 (single isomer, unassigned) [Compound 143]	300 to 1000 nM	30 to 50%	
CN(CCOC1CCN(Cc2cc(C(F)(F)F)c3cn(-c4cccc([C@H](c5nncn5C)C5CCC5)c4)c(=O)n3c2)CC1)C(=O)c1ccc(N2C3CC2CN(c2ccc4c(c2)CN([C@@H]2CCC(=O)NC2=O)C4=O)C3)cc1 (single isomer, unassigned) [Compound 145]	> 10000 nM		30 to 50%
CN(CCOC1CCN(Cc2cc(C(F)(F)F)c3cn(-c4cccc([C@H](c5nncn5C)C5CCC5)c4)c(=O)n3c2)CC1)C(=O)c1ccc(N2C3CC2CN(c2ccc4c(c2)CN([C@H]2CCC(=O)NC2=O)C4=O)C3)cc1 (single isomer, unassigned) [Compound 146]	> 10000 nM	< 30%	
CN(CCOCc1cc(C(F)(F)F)c2cn(-c3cccc([C@H](c4nncn4C)C4CCC4)c3)c(=O)n2c1)C(=O)c1ccc(N2CCN(c3ccc4c(c3)CN([C@@H]3CCC(=O)NC3=O)C4=O)CC2)cc1 (single isomer, unassigned) [Compound 147]	> 10000 nM	< 30%	
CN(CCOCc1cc(C(F)(F)F)c2cn(-c3cccc([C@H](c4nncn4C)C4CCC4)c3)c(=O)n2c1)C(=O)c1ccc(N2CCN(c3ccc4c(c3)CN([C@H]3CCC(=O)NC3=O)C4=O)CC2)cc1 (single isomer, unassigned) [Compound 148]	30 to 300 nM	30 to 50%	
Cn1cnnc1[C@@H](c1cccc(-n2cc3c(C(F)(F)F)cc(CN4CCC(C5CCN(C(=O)c6ccc(N7CCN(c8ccc9c(c8)CN([C@@H]8CCC(=O)NC8=O)C9=O)CC7)cc6)CC5)CC4)cn3c2=O)c1)C1CCC1 (single isomer, unassigned) [Compound 161]	300 to 1000 nM	< 30%	

Now from value to molecule, other results behind:

DC50 [1]	Dmax [2]	Compound	Dmax (THP-1)
< 30 nM	> 70%	CN(CCCN1CCN(Cc2cc(C(F)(F)F)c3cn(-c4cccc([C@H](c5nncn5C)C5CCC5)c4)c(=O)n3c2)CC1)C(=O)c1ccc(N2CCN(c3ccc4c(c3)CN([C@@H]3CCC(=O)NC3=O)C4=O)CC2)cc1 (single isomer, unassigned) [Compound 123]	
< 30 nM	> 70%	CN(CCCN1CCN(Cc2cc(C(F)(F)F)c3cn(-c4cccc([C@H](c5nncn5C)C5CCC5)c4)c(=O)n3c2)CC1)C(=O)c1ccc(N2CCN(c3ccc4c(c3)CN([C@H]3CCC(=O)NC3=O)C4=O)CC2)cc1 (single isomer, unassigned) [Compound 124]	
30 to 300 nM	50 to 70%	Cn1cnnc1[C@@H](c1cccc(-n2cc3c(C(F)(F)F)cc(CN4CCN(CCc5ccc(N6CCN(c7ccc8c(c7)CN([C@@H]7CCC(=O)NC7=O)C8=O)CC6)cc5)CC4)cn3c2=O)c1)C1CCC1 (single isomer, unassigned) [Compound 125]	
< 30 nM	> 70%	Cn1cnnc1[C@@H](c1cccc(-n2cc3c(C(F)(F)F)cc(CN4CCN(CCc5ccc(N6CCN(c7ccc8c(c7)CN([C@H]7CCC(=O)NC7=O)C8=O)CC6)cc5)CC4)cn3c2=O)c1)C1CCC1 (single isomer, unassigned) [Compound 126]	
> 10000 nM	< 30%	Cn1cnnc1[C@@H](c1cccc(-n2cc3c(C(F)(F)F)cc(CN4CCC[C@H](OCCc5ccc(CN6CCN(c7ccc8c(c7)CN([C@@H]7CCC(=O)NC7=O)C8=O)CC6)cc5)C4)cn3c2=O)c1)C1CCC1 (single isomer, unassigned) [Compound 127]	
< 30 nM	50 to 70%	Cn1cnnc1[C@@H](c1cccc(-n2cc3c(C(F)(F)F)cc(CN4CCC[C@H](OCCc5ccc(CN6CCN(c7ccc8c(c7)CN([C@H]7CCC(=O)NC7=O)C8=O)CC6)cc5)C4)cn3c2=O)c1)C1CCC1 (single isomer, unassigned) [Compound 128]	
30 to 300 nM	50 to 70%	Cn1cnnc1[C@@H](c1cccc(-n2cc3c(C(F)(F)F)cc(CN4CCN(C(=O)CN5CCC(CN6CCN(c7ccc8c(c7)CN([C@H]7CCC(=O)NC7=O)C8=O)CC6)CC5)CC4)cn3c2=O)c1)C1CCC1 (single isomer, unassigned) [Compound 130]	
< 30 nM	50 to 70%	Cn1cnnc1[C@@H](c1cccc(-n2cc3c(C(F)(F)F)cc(CN4CCC[C@@H](OCCc5ccc(CN6CCN(c7ccc8c(c7)CN([C@H]7CCC(=O)NC7=O)C8=O)CC6)cc5)C4)cn3c2=O)c1)C1CCC1 (single isomer, unassigned) [Compound 144]	
> 10000 nM	< 30%	Cn1cnnc1[C@@H](c1cccc(-n2cc3c(C(F)(F)F)cc(CN4CCC(OCc5cccc(C(=O)N6CCN(c7ccc8c(c7)CN([C@@H]7CCC(=O)NC7=O)C8=O)CC6)c5)CC4)cn3c2=O)c1)C1CCC1 (single isomer, unassigned) [Compound 153]	
300 to 1000 nM	30 to 50%	Cn1cnnc1[C@@H](c1cccc(-n2cc3c(C(F)(F)F)cc(CN4CCC(OCc5cccc(C(=O)N6CCN(c7ccc8c(c7)CN([C@H]7CCC(=O)NC7=O)C8=O)CC6)c5)CC4)cn3c2=O)c1)C1CCC1 (single isomer, unassigned) [Compound 154]	
> 10000 nM	< 30%	Cn1cnnc1[C@@H](c1cccc(-n2cc3c(C(F)(F)F)cc(CN4CCC(OCc5ccc(N6CCN(c7ccc8c(c7)CN([C@@H]7CCC(=O)NC7=O)C8=O)CC6)cc5)CC4)cn3c2=O)c1)C1CCC1 (single isomer, unassigned) [Compound 155]	
< 30 nM	50 to 70%	Cn1cnnc1[C@@H](c1cccc(-n2cc3c(C(F)(F)F)cc(CN4CCC(OCc5ccc(N6CCN(c7ccc8c(c7)CN([C@H]7CCC(=O)NC7=O)C8=O)CC6)cc5)CC4)cn3c2=O)c1)C1CCC1 (single isomer, unassigned) [Compound 156]	
> 10000 nM	< 30%	Cn1cnnc1[C@@H](c1cccc(-n2cc3c(C(F)(F)F)cc(CN4CCC(OCc5ccc(C(=O)N6CCN(c7ccc8c(c7)CN([C@@H]7CCC(=O)NC7=O)C8=O)CC6)cc5)CC4)cn3c2=O)c1)C1CCC1 (single isomer, unassigned) [Compound 157]	
< 30 nM	> 70%	Cn1cnnc1[C@@H](c1cccc(-n2cc3c(C(F)(F)F)cc(CN4CCC(OCc5ccc(C(=O)N6CCN(c7ccc8c(c7)CN([C@H]7CCC(=O)NC7=O)C8=O)CC6)cc5)CC4)cn3c2=O)c1)C1CCC1 (single isomer, unassigned) [Compound 158]	
